Measured values from US8415312B2, “Compound which is a nystatin derivative” (Biosergen AS, priority 2007, dated 2013).
Values after ≈ are worked out from the molar mass of the structure shown. Values joined by “and” are separate entries in the source; they are usually repeats but may differ in a detail not shown here. Equal entries are not always repeated.

Key:
[1] = system: yeasts and filamentous fungi (moulds); assay: Antifungal susceptibility study (1), overall comparison across the test organisms; format: cell-based; conditions: for anti-fungal activity compared with Amphotericin B and S44HP: Table 5 MICs; for antifungal activity, rank within the series: Tables 7 and 8
Procedure: The organisms used for susceptibility testing were: Candida albicans ATCC 14053, Cryptococcus humicolus ATCC 9949, Aspergillus niger ATCC 16404 and Fusarium oxysporum VKM F-140 (=CMI, IMI 90473). Organisms were stored on potato dextrose agar […] 50% glycerol solution at -70° C. For short-term storage, stock cultures were stored on agar […] 4° C. The cultures of yeasts were sub-cultured onto Sabouraud dextrose (SAB) agar and incubated for 24 hours at 35° C. (Candida albicans) or for 48 hours at 25° C. (Cryptococcus humicolus) to obtain a freshly grown pure culture. The cultures of moulds were sub-cultured onto potato dextrose agar and incubated for 7 days at 35° C. […] (Fusarium oxysporum) to ensure maximum sporulation. Sterile 96-well flat-bottomed microtitration plates were used for testing. 100 μl of diluted inocula were dispensed into each microdilution well containing 100 μl of the double dilutions of compounds. Drug-free and yeast/mould-free controls were included. Microdilution trays were incubated at 35° C. (Candida albicans and moulds) or 25° C. (Cryptococcus humicolus) without agitation and observed for the presence or absence of visible growth. […] Minimal inhibitory concentrations (MICs) were read at 48 hours.

[2] = system: Aspergillus niger ATCC 16404; assay: Antifungal susceptibility study (1), broth microdilution MIC; format: cell-based; conditions: lowest concentration preventing any visible growth, read at 48 hours, 35° C., RPMI 1640 pH 7.0
Method in brief: (§1)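 Broth microdilution was run at pH 7.0 with compounds diluted from DMSO solutions and mixed 1:1 with conidial inoculum. Spore suspensions were adjusted to OD530 0.09-0.11 for A. niger or 0.15-0.17 for F. oxysporum, then diluted 1:50. Plates were incubated at 35° C without agitation, and MIC was read at 48 hours as absence of visible growth.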

[3] = system: Fusarium oxysporum VKM F-140; assay: as above; format: cell-based; conditions: lowest concentration preventing any visible growth, read at 48 hours, 35° C., RPMI 1640 pH 7.0
Method in brief: as §1

[4] = system: Candida albicans (strain 14053 ATCC); assay: In vivo antifungal activity, kidney burden in infected mice; conditions: day 5, individual mice
Procedure: Male mice of hybrids of first generation (C57B1/6xDBA/2)F1 B6D2F1, weight 20-22 g., received from the Central farm. “Kryukovo” of Russian Academies of Medical Science (RAMS) were used. Animals were maintained in a vivarium in plastic cages (with hardwood bedding in environmentally controlled conditions: 24±1° C., 12/12 hours light/dark cycle) on a standard diet of bricketed forages with easy access to drinking water (ad libitum). After a 2-week quarantine period, healthy animals were used in experimental work.
The solutions were prepared as follows: dry antibiotic substances (5 mg) were mixed with dry sodium deoxycholate (4.1 mg) in a sterile glass vial. 10 mL of phosphate buffer (NaH2PO4—1.59 g; Na2HPO4—0.96 g; H2O—to 100 mL) was added to the mix and the suspension was immediately subjected to vigorous shaking for 10 minutes until homogeneous suspensions were formed.
Animals were infected intravenously with Candida albicans culture at a dose of 1.0 million CFU/mouse (volume 0.1 mL). 30 minutes after infection, the antifungal agents were introduced intravenously into the mice at various doses in a volume of 0.2 mL (at a rate of 0.2 mL/30 second). Each dose was administered daily for four days including the day of infection (0, 1, 2 and 3 days).
As a control, there was a group of untreated mice (infected in the same way with Candida albicans). Also there was a “placebo” group of non-infected animals which were intravenously administered (in the same volume as antifungal agent preparations) 0.2 mL of solvent (phosphatic buffer +5% glucose (1:1)).
On the 5th day of experiment, mice were weighed and euthanized (killed) by a cervical dislocation. Then, in sterile conditions, the Candida albicans burden of each mouse was determined by counting of viable homogenates from the kidneys. The kidneys were removed aseptically and weighed, then pounded in porcelain mortars with sterile corundum. Dilutions of the resulting suspensions were prepared and sowed on Petri dishes with agar Saburo, incubated for 24 hours at a temperature of 35° C. Developed colonies of Candida albicans were then counted and their quantity calculated on the basis of 1 g of kidney tissue.

[5] = 0.08 mg/kg × 4/24 i.v., colonies per 1 g of kidney tissue
[6] = 0.8 mg/kg × 4/24 i.v., colonies per 1 g of kidney tissue
[7] = 2.5 mg/kg × 4/24 i.v., colonies per 1 g of kidney tissue
[8] = 5 mg/kg × 4/24 i.v., Candida albicans colonies per 1 g of kidney tissue

SMILES | anti-fungal activity compared with Amphotericin B and S44HP [1] | MIC Aspergillus niger ATCC 16404 [2] | MIC Aspergillus niger ATCC 16404 ([2]; listed as Comp 1) | MIC Fusarium oxysporum VKM F-140 [3] | Number of Colonies [4, 5] | Number of Colonies [4, 6] | Number of Colonies [4, 7] | Number of Colonies [4, 8] | antifungal activity, rank within the series [1] | Number of Colonies ([4]; 0.08 mg/kg × 4/24 i.v., colonies per 1 g of kidney tissue, listed as Amp B) | Number of Colonies ([4]; 0.8 mg/kg × 4/24 i.v., colonies per 1 g of kidney tissue, listed as Amp B) | Number of Colonies ([4]; 2.5 mg/kg × 4/24 i.v., colonies per 1 g of kidney tissue, listed as Amp B)
CC1C=CC=CC=CC=CC=CC=CC=CC(OC2OC(C)C(O)C(N)C2O)CC2OC(O)(CC(O)C(O)CCC(O)CC(O)CC(O)CC(=O)OC(C)C(C)C1O)CC(O)C2C (centres unmarked) [Compound 1] | comparable anti-fungal activity to Amphotericin B and S44HP | 1 µg/mL and 2 µg/mL | 2 µg/mL (≈ 2.24 µM) | 2 µg/mL (≈ 2.24 µM) | 2.4 × 10^4 (2×) and 2.8 × 10^4 | 2.5 × 10^3 and 1.2 × 10^3 and 5.0 × 10^3 | 2.0 × 10^1 (2×) and 1.0 × 10^1 | 1.0 × 10^1 (2×) and 0 | – | – | – | –
CC1O[C@@H](O[C@H]2/C=C/C=C/C=C/C=C/C=C/C=C/C=C/[C@H](C)[C@@H](O)[C@@H](C)[C@H](C)OC(=O)C[C@H](O)C[C@H](O)C[C@H](O)CC[C@@H](O)[C@H](O)C[C@]3(O)C[C@H](O)[C@@H](C)[C@H](C2)O3)[C@H](O)C(NC(=O)[C@@H](N)CCCCN)[C@@H]1O (stereo partly drawn) [Compound 51, N-L-Lysyl-Compound 1] | – | 1 µg/mL (≈ 0.978 µM) | – | 2 µg/mL (≈ 1.96 µM) | – | – | – | – | most active derivative in this series with antifungal activity slightly higher than the parent antibiotic | – | – | –
CC1C=CC=CC=CC=CC=CC=CC=CC(OC2OC(C)C(O)C(N)C2O)CC2OC(O)(CC(O)C(O)CCC(O)CC(O)CC(O)CC(=O)OC(C)C(C)C1O)CC(O)C2C(=O)NCCCN(C)C (centres unmarked) [Compound 11, S44HP DMAP Amide] | comparable anti-fungal activity to Amphotericin B and S44HP | 2 µg/mL (≈ 1.98 µM) | – | 2 µg/mL (≈ 1.98 µM) | 3.0 × 10^4 and 2.7 × 10^4 and 1.5 × 10^4 | 1.2 × 10^3 and 3.0 × 10^3 and 2.5 × 10^3 | <10^1 and 1.0 × 10^1 (2×) | 0 (2×) and <10^1 | – | – | – | –
CC1C=CC=CC=CC=CC=CC=CC=CC(OC2OC(C)C(O)C(N)C2O)CC2OC(O)(CC(O)C(O)CCC(O)CC(O)CC(O)CC(=O)OC(C)C(C)C1O)CC(O)C2C.NC(CCC(=O)O)C(=O)O [Compound 29, Compound 1 L-glutamate] | – | 2 µg/mL | – | 2 µg/mL | – | – | – | – | most active salt of Compound 1 | – | – | –
C[C@@H]1[C@H](O)[C@@H](C)/C=C/C=C/C=C/C=C/C=C/C=C/C=C/[C@H](O[C@@H]2O[C@H](C)[C@@H](O)[C@H](N)[C@@H]2O)C[C@@H]2O[C@](O)(C[C@@H](O)C[C@@H](O)[C@H](O)CC[C@@H](O)C[C@@H](O)CC(=O)O[C@H]1C)C[C@H](O)[C@H]2C(=O)O [Amphotericin B, reference compound] | – | 1 µg/mL (≈ 1.08 µM) | – | 4 µg/mL (≈ 4.33 µM) | – | – | – | – | – | 1.8 × 10^4 and 2.6 × 10^4 and 3.4 × 10^4 | 2 × 10^3 and 6 × 10^3 and 4 × 10^3 | 1.0 × 10^3 and 2.2 × 10^2 and 2.8 × 10^2
